One may read the melting point as the temperature, or range, at which the solid turns liquid. As usually defined, the GI50 is the concentration that inhibits growth by half.

This is an account of results in patent US6949682B2, “Cinnamaldehyde derivatives inhibiting growth of tumor cell and regulating cell cycle, preparations and pharmaceutical compositions thereof” (Korea Research Institute of Bioscience and Biotechnology, priority 2003, dated 2005).

Structures are written as SMILES.

The test system of series [1] is SW620 colon cancer cell. Briefly: Cell cycle analysis (Experimental Example 1), SW620. In kind it is cell-based, human. Conditions: SW620, 1 μM, 48 hours, percentage of cells in G2/M. The method, then:
(§1) Colon cancer cell of human SW620(ATCC) or HCT116 (ATCC) was transferred to T25 flask(culture 7.5 ml) by RPMI1640 (Gibco/BR) medium or DMEM medium (Gibco/BR) containing 10% FBS (fetal bovine serum), respectively. Thereafter the cell was incubated for 12 hours at 37° C. in incubator. After the cell was incubated for 12 hours, 7.5 μl of DMSO was added to a culture used as control group, for the final concentration to be 0.1%. In order to use in experiment, samples of various concentrations were prepared by dissolving the cinnamaldehyde derivatives of the present invention in DMSO. 7.5 μl of the prepared samples was added to a culture used as experimental group. Cell of control or experimental group was incubated for 48 hours.
(§2) For cell cycle analysis, incubated cell was removed from medium. Thereafter the incubated cell was separated from the flask by trypsin. Thus the cell was centrifuged at 300 g for 5 min. The cell was washed with phosphate buffer solution (PBS) to remove the residue medium from the cell. 3 ml of ethanol (70%) was added to the cell. The cell was fixed by being positioned at −20° C. for 12 hours. The fixed cell was centrifuged at 300 g for 3 min and washed with the cold PBS for two times to remove residual ethanol. The cell solution prepared by adding 500 μl of PBS to the cell was well mixed to produce the homogeneous state. 100 μg/ml RNase A 50 μl was added to the cell solution, thereafter the resulting cell solution was positioned at 37° C. for 30 min. The chromosomal DNA was stained by further adding 1 mg/ml propidium iodide (soluble in PBS) thereto.
(§3) Distribution of cell cycle of 20,000 stained cells were measured by using Becton-Dickinson FACS caliber (San Jose, Calif., USA).

Series [2] deals with HCT116 colon cancer cell. Briefly: Cell cycle analysis (Experimental Example 1), HCT116. In kind it is cell-based, human. As to conditions: HCT116, 1 μM, 48 hours, percentage of cells in G2/M. The method, then:
as §1, §2, §3

In series [3] the test system is SW620 colon cancer cell. In words: Growth inhibition of SW620 colon cancer cell (GI50). The series is classed as cell-based, human. Conditions: concentration at which growth of SW620 colon cancer cell was inhibited to the 50%. The procedure:
as §1
(§4) HCT116 GI50 (μM) and SW620 GI50 (μM) mean to be the concentrations at which growth of HCT116 and SW620 colon cancer cell was inhibited to the 50%, respectively.

The test system of series [4] is HCT116 colon cancer cell. In words: Growth inhibition of HCT116 colon cancer cell (GI50). In kind it is cell-based, human. Conditions: concentration at which growth of HCT116 colon cancer cell was inhibited to the 50%. The method, then: as §1, §4

As for `O=CC(=C\c1ccccc1)/C(C=O)=C/c1ccccc1` [Compound 1, 2,3-bis-benzylidenesuccinaldehyde], the melting point is 150 to 151 °C. Also, the “G2/M at 1 μM(%) SW620” value in the series with SW620 colon cancer cell [1] came out at 45%. Also, the “G2/M at 1 μM(%) HCT116” value in the series on HCT116 colon cancer cell [2] stood at 42%. The same compound returned a GI50 in the series on SW620 colon cancer cell [3] (Homo sapiens, SW-620) of 1.52 µM. Growth in the series with HCT116 colon cancer cell [4] (Homo sapiens, HCT-116) was halved (GI50) at 8.39 µM.
For `O=CC(=Cc1ccccc1F)C(C=O)=Cc1ccccc1F` [Compound 2, 2,3-bis-(2-fluorobenzylidene)succinaldehyde], in that order: 141 to 142 °C, 58%, 48%, 10.7 µM and 4.02 µM.
Take `O=CC(=Cc1ccccc1Cl)C(C=O)=Cc1ccccc1Cl` [Compound 3, 2,3-bis-(2-chlorobenzylidene)succinaldehyde]: the melting point is 177 to 178 °C. In addition, the “G2/M at 1 μM(%) SW620” value in the series on SW620 colon cancer cell [1] is 47%. The “G2/M at 1 μM(%) HCT116” value with HCT116 colon cancer cell [2] is 40%. In the series with SW620 colon cancer cell [3] (Homo sapiens, SW-620), growth was halved (GI50) at 0.91 µM. In addition, in the series on HCT116 colon cancer cell [4] (Homo sapiens, HCT-116), the GI50 was 0.91 µM.
Compound `O=CC(=Cc1ccccc1Br)C(C=O)=Cc1ccccc1Br` [Compound 4, 2,3-bis-(2-bromobenzylidene)succinaldehyde] showed a melting point of 194 to 195 °C. For the same compound, the “G2/M at 1 μM(%) SW620” value with SW620 colon cancer cell [1] was determined as 36%. Besides, the “G2/M at 1 μM(%) HCT116” value in the series on HCT116 colon cancer cell [2] was determined as 38%. In the series with SW620 colon cancer cell [3] (Homo sapiens, SW-620), this compound gave a GI50 of 2.14 µM. Moreover, the GI50 in the series on HCT116 colon cancer cell [4] (Homo sapiens, HCT-116) was determined as 1.05 µM.
The matching figures for `COc1ccccc1C=C(C=O)C(C=O)=Cc1ccccc1OC` [Compound 5, 2,3-bis-(2-methoxybenzylidene)succinaldehyde]: 163 to 164 °C, 50%, 55%, 1.55 µM and 3.72 µM.
For `O=CC(=Cc1cccc(Cl)c1)C(C=O)=Cc1cccc(Cl)c1` [Compound 6, 2,3-bis-(3-chlorobenzylidene)succinaldehyde], in that order: 107 to 108 °C, 66%, 60%, 90.6 µM and 3.62 µM.
For `COc1cc(C=C(C=O)C(C=O)=Cc2ccc(O)c(OC)c2)ccc1O` [Compound 7, 2,3-bis-(4-hydroxy-3-methoxy-benzylidene)succinaldehyde], in that order: 177 to 178 °C, 38%, 30%, 3.53 µM and 7.87 µM.
`COc1ccc(C=C(C=O)C(C=O)=Cc2ccc(OC)c(OC)c2)cc1OC` [Compound 8, 2,3-bis-(3,4-dimethoxybenzylidene)succinaldehyde] registered a melting point of 149 to 150 °C. Besides, the “G2/M at 1 μM(%) SW620” value with SW620 colon cancer cell [1] worked out at 75%. Further, the “G2/M at 1 μM(%) HCT116” value with HCT116 colon cancer cell [2] was determined as 71%. Besides, the GI50 in the series with SW620 colon cancer cell [3] (Homo sapiens, SW-620) stood at 10.5 µM. This compound yielded a GI50 in the series on HCT116 colon cancer cell [4] (Homo sapiens, HCT-116) of 5.49 µM.
The matching figures for `O=CC(=Cc1ccc(Cl)cc1)C(C=O)=Cc1ccc(Cl)cc1` [Compound 9, 2,3-bis-(4-chlorobenzylidene)succinaldehyde]: 172 to 173 °C, 67%, 63%, 24.2 µM and 3.62 µM.
With `O=CC(=Cc1ccc(O)cc1)C(C=O)=Cc1ccc(O)cc1` [Compound 10, 2,3-bis-(4-hydroxy-benzylidene)succinaldehyde], the melting point lay within 244 to 246 °C. Moreover, in the series on SW620 colon cancer cell [1], the “G2/M at 1 μM(%) SW620” value was 65%. In the series with HCT116 colon cancer cell [2], the “G2/M at 1 μM(%) HCT116” value was 61%. In the series with SW620 colon cancer cell [3] (Homo sapiens, SW-620), growth was halved (GI50) at 1.02 µM. For the same compound, in the series with HCT116 colon cancer cell [4] (Homo sapiens, HCT-116), the concentration for 50% growth inhibition (GI50) is 1.36 µM.
For `Cc1ccc(C=C(C=O)C(C=O)=Cc2ccc(C)cc2)cc1` [Compound 11, 2,3-bis-(4-methyl-benzylidene)succinaldehyde], in that order: 177 to 178 °C, 44%, 40%, 5.17 µM and 1.03 µM.
For `COc1ccc(C=C(C=O)C(C=O)=Cc2ccc(OC)cc2)cc1` [Compound 12, 2,3-bis-(4-methoxy-benzylidene)succinaldehyde], in that order: 204 to 207 °C, 57%, 59%, 10.2 µM and 9.62 µM.
For `CCCOc1ccccc1/C=C(C=O)/C(C=O)=C/c1ccccc1OCCC` [Compound 13, 2,3-bis(2-propyloxy-benzylidene)succinaldehyde], in that order: 109 to 110 °C, 62%, 65%, 2.11 µM and 5.28 µM.
Turning to `C=CCOc1ccccc1C=C(C=O)C(C=O)=Cc1ccccc1OCC=C` [Compound 14, 2,3-bis-(2-allyloxy-benzylidene)succinaldehyde], the melting point fell in the range of 117 to 118 °C. Moreover, the “G2/M at 1 μM(%) SW620” value in the series with SW620 colon cancer cell [1] worked out at 76%. In the series on HCT116 colon cancer cell [2], the “G2/M at 1 μM(%) HCT116” value is on record as 72%. The compound also came in with a GI50 with SW620 colon cancer cell [3] (Homo sapiens, SW-620) of 2.64 µM. Growth in the series with HCT116 colon cancer cell [4] (Homo sapiens, HCT-116) was halved (GI50) at 5.28 µM.
Compound `CC(C)Oc1ccccc1C=C(C=O)C(C=O)=Cc1ccccc1OC(C)C` [Compound 15, 2,3-bis-(2-isopropyloxy-benzylidene)succinaldehyde] yielded a melting point of 109 to 110 °C. The “G2/M at 1 μM(%) SW620” value in the series on SW620 colon cancer cell [1] stood at 69%. The “G2/M at 1 μM(%) HCT116” value in the series with HCT116 colon cancer cell [2] is 70%. In the series on SW620 colon cancer cell [3] (Homo sapiens, SW-620), this compound gave a GI50 of 5.34 µM. This compound also gave a GI50 with HCT116 colon cancer cell [4] (Homo sapiens, HCT-116) of 5.34 µM.
Regarding `O=CC(=Cc1ccccc1OCc1ccc(Cl)cc1)C(C=O)=Cc1ccccc1OCc1ccc(Cl)cc1` [Compound 17, 2,3-bis-(2-(4-chlorobenzyloxy)-benzylidene)succinaldehyde], the melting point fell in the range of 186 to 187 °C. The “G2/M at 1 μM(%) SW620” value in the series with SW620 colon cancer cell [1] amounted to 76%. In the series with HCT116 colon cancer cell [2], the “G2/M at 1 μM(%) HCT116” value came to 71%. In addition, growth in the series on SW620 colon cancer cell [3] (Homo sapiens, SW-620) was halved (GI50) at 0.54 µM. For the same compound, the GI50 in the series with HCT116 colon cancer cell [4] (Homo sapiens, HCT-116) is 0.84 µM.
The compound `O=CC(=Cc1ccccc1OCc1ccc(Br)cc1)C(C=O)=Cc1ccccc1OCc1ccc(Br)cc1` [Compound 18, 2,3-bis-(2-(4-bromobenzyloxy)-benzylidene)succinaldehyde] had a melting point of 210 to 211 °C. In addition, the “G2/M at 1 μM(%) SW620” value with SW620 colon cancer cell [1] was 70%. For the same compound, the “G2/M at 1 μM(%) HCT116” value with HCT116 colon cancer cell [2] is 75%. The same compound yielded a GI50 in the series on SW620 colon cancer cell [3] (Homo sapiens, SW-620) of 4.64 µM. The compound further had a GI50 with HCT116 colon cancer cell [4] (Homo sapiens, HCT-116) of 2.63 µM.
`O=CC(=Cc1ccccc1OCc1ccc([N+](=O)[O-])cc1)C(C=O)=Cc1ccccc1OCc1ccc([N+](=O)[O-])cc1` [Compound 19, 2,3-bis-(2-(4-nitrobenzyloxy)-benzylidene)succinaldehyde] showed a melting point of 116 to 117 °C. Further, in the series on SW620 colon cancer cell [1], the “G2/M at 1 μM(%) SW620” value is reported as 39%. In the series on HCT116 colon cancer cell [2], the “G2/M at 1 μM(%) HCT116” value turned out to be 32%. In addition, it took 7.09 µM to inhibit growth in the series with SW620 colon cancer cell [3] (Homo sapiens, SW-620) by half (GI50). This compound yielded a concentration for 50% growth inhibition (GI50) in the series with HCT116 colon cancer cell [4] (Homo sapiens, HCT-116) of 5.19 µM.
The matching figures for `CCCOc1cccc(/C=C(C=O)/C(C=O)=C/c2cccc(OCCC)c2)c1` [Compound 20, 2,3-bis-(3-propyloxy-benzylidene)succinaldehyde]: 93 to 94 °C, 76%, 72%, 6.74 µM and 2.74 µM.
For the compound `CCCCC(=O)Oc1ccc(C=C(C=O)C(C=O)=Cc2ccc(OC(=O)CCCC)c(OC)c2)cc1OC` [Compound 26, 2,3-bis-(4-valeryloxy-3-methoxy-benzylidene)succinaldehyde], in the series on SW620 colon cancer cell [1], the “G2/M at 1 μM(%) SW620” value is 47%. Besides, the “G2/M at 1 μM(%) HCT116” value in the series on HCT116 colon cancer cell [2] is 46%. Further, the 50% growth inhibitory concentration (GI50) in the series on SW620 colon cancer cell [3] (Homo sapiens, SW-620) was determined as 54 µM; in the series on HCT116 colon cancer cell [4] (Homo sapiens, HCT-116), 11.2 µM.
For `CCCOc1ccc(/C=C(C=O)/C(C=O)=C/c2ccc(OCCC)cc2)cc1` [Compound 28, 2,3-bis-(4-propyloxybenzylidene)succinaldehyde], in that order: 70%, 72%, 0.55 µM and 0.82 µM.
As to `CCCCC(=O)Oc1ccc(C=C(C=O)C(C=O)=Cc2ccc(OC(=O)CCCC)cc2)cc1` [Compound 30, 2,3-bis-(4-valeryoxy-benzylidene)succinaldehyde], the “G2/M at 1 μM(%) SW620” value in the series with SW620 colon cancer cell [1] is given as 65%. Moreover, in the series on HCT116 colon cancer cell [2], the “G2/M at 1 μM(%) HCT116” value amounted to 63%. Moreover, the GI50 with SW620 colon cancer cell [3] was found to be 65 µM; with HCT116 colon cancer cell [4], 21 µM.
